Assay results as given in US20180008593A1 (Purdue Pharma L.P., priority 2005, published 2018).

What was measured:
[1] = system: experimental human pain model, healthy volunteers; assay: Pain-related evoked potentials (EEG) after CO2 stimulation of the nasal mucosa, Example 4; type: in vivo
Description: This was a single site, single dose, double blind, placebo-controlled, 5-treatment, 5-period, randomized, balanced crossover study in healthy adult male and female subjects. […] Subjects were allocated each of the 5 treatments described in the synopsis according to a random allocation schedule (RAS). There was a 7-day washout period
Analgesic effects were assessed by means of an experimental human pain model based on the chemosomatosensory pain-related cortical potentials (CSSEPs) and pain-ratings after specific phasic nociceptive stimulation of the nasal mucosa with gaseous CO2. In addition, intensity estimates of tonic pain produced by stimulation of the nasal mucosa with dry air at controlled flow and temperature were employed.
Within the present pain model, the following were used as indicators of analgesia: • post-treatment decrease in pain-ratings and/or • post-treatment decrease in amplitudes of pain-related evoked potentials and/or • post-treatment increase in latencies of pain-related evoked potentials, relative to the pretreatment values.
1. Base-to-peak amplitudes P1, N1 and P2, peak-to-peak amplitudes P1 N1 and N1P2 of pain related evoked potentials 2. Latencies P1, N1 and P2 of pain-related evoked potentials 3. Intensity estimates of phasic (C02-) pain 4. Intensity estimates of tonic pain
In the first 20 minutes, 40 phasic CO2-stimuli were applied (20 stimuli at a concentration of 70% and 20 at a concentration of 60%, interstimulus interval 30 s). In response to these stimuli, pain-related potentials and subjective intensity estimates were recorded.
CO2-stimuli were mixed in a constantly flowing air stream with controlled temperature (36.5° C.) and humidity (80% relative humidity) presented to the left nostril (stimulus duration 200 ms, interstimulus interval 30 s). […] During intervals between phasic stimuli subjects performed a simple tracking task on a video screen. Using a joystick, they had to keep a small square inside a larger one that randomly moved around.
The EEG was recorded from 5 positions of the international 10/20 system (Cz, C3, C4, Fz and Pz; see FIG. 40) referenced to linked earlobes (A1+A2). Possible eye blink artifacts were monitored from an additional site (Fp2/A1+A2). Stimulus linked EEG segments of 2040 ms duration were sampled with a frequency of 250 Hz (band pass 0.2-30 Hz, pre-stimulus period 512 ms). The recorded analog EEG segments were then converted to digital and filed electronically. The average value for each recording position was separately calculated, discarding all eye blink contaminated records. By this procedure pain-related evoked potentials were obtained in response to the painful CO2 stimuli. Base to peak amplitudes P1, N1 and P2, the peak to peak amplitudes P1 N1 and N1 P2 and the latencies of P1, […] and P2 were measured. Wherever the time of measurement was used in the data analysis, the mid-time of a session was taken. FIG. 40 presents the components of the pain-related evoked potentials.

[2] = system: oxycodone-pump and vehicle-pump implanted rats; assay: Oxycodone tolerance: tail withdrawal dose response in pump-implanted rats, Example 5; type: in vivo, rat
Description: Animals were randomized and acclimated for one week as described in Section 3.1. Vehicle control pumps contained sterile filtered isotonic saline. Alzet 2ML 1 osmotic mini pumps were loaded with oxycodone solution as described in “Alzet Osmotic Minipumps: Technical Information Manual” from DURECT Corp., Cupertino, Calif. The loaded pumps were primed by placing them in sterile isotonic saline at 37° […] for 3-h before implanting them in the rats. The rats were briefly anesthetized with isoflurane USP (Henry Schein, Inc. Melville, N.Y., U.S.A.) for implantation of 2ML 1 osmotic minipumps that deliver at a rate […]. After induction of anesthesia (as noted by the absence of the righting reflex and foot pinch response). Sterile scissors were used to make a 1.5 cm incision that was expanded under the skin with hemostats in a caudal direction to open the subcutaneous space for the pump. A sterile 2ML 1 pump was then inserted under the skin and moved to the dorsum. The rats were returned to their home cages and monitored until they completely recovered from anesthesia. Pump delivery began at 4-h (DU REGT Corp.) allowing the rats 1-h to recover from the anesthesia. Therefore, time zero began 1-h after implantation of the pumps. The rats were monitored daily for signs of distress, drug toxicity, or problems with the surgical site.
If the value was below 50% then the predicted level of tolerance was greater than 10-fold. The infusion dose that elicited approximately a 50% MPE with the challenge was selected as the 10-fold model of tolerance.
After this, the individual groups (8/group) were challenged with increasing doses of oxycodone for construction of a dose-response curve for calculation of the ED80 value. Potency-ratio determinations were made between the oxycodone-pump and vehicle-pump groups.

[3] = system: patients with severe chronic pain; assay: Incidence and duration of diarrhea and discontinuations due to diarrhea, Example 1; conditions: naloxone 0 mg
[4] = system: male Sprague-Dawley rats; assay: 51° C. warm-water tail withdrawal test, i.v. oxycodone in opioid naive rats, Example 5
[5] = 0.3 mg/kg oxycodone free-base i.v.

## COc1ccc2c3c1O[C@H]1C(=O)CC[C@@]4(O)[C@@H](C2)N(C)CC[C@]314 [Oxycodone, oxycodone]
[1]; 60% CO2, 20 mg oxycodone
  Magnitude of reduction of amplitude P1N1 at C4 compared to baseline: 35.3%
[1]; 60% CO2, recording position C4
  Amplitude P1N1 of pain-related evoked potentials: significant compared to placebo
  Latency P1 of pain-related evoked potentials: significant compared to placebo
[1]; 60% CO2, recording position Pz
  Latency P1 of pain-related evoked potentials: significant compared to placebo
[1]; 70% CO2, recording position C3
  Latency P1 of pain-related evoked potentials: significant compared to placebo
[1]; 70% CO2, recording position Cz
  Latency P1 of pain-related evoked potentials: significant compared to placebo
  Latency P2 of pain-related evoked potentials: significant compared to placebo
[1]; 70% CO2, recording position Fz
  Latency P1 of pain-related evoked potentials: significant compared to placebo
[1]; 70% CO2, recording position Pz
  Latency P1 of pain-related evoked potentials: significant compared to placebo
  Latency P2 of pain-related evoked potentials: significant compared to placebo
[2]; 7-day oxycodone infusion […] vs vehicle pump
  Rightward shift in the oxycodone dose-response curve (tolerance): 8.5 fold
[2]; Rattus norvegicus, iv, i.v. oxycodone, vehicle-pump implanted rats, read-out: ED50 value (antinociception)
  ED50: 0.32 mg/kg
[2]; after s.c. oxycodone infusion […] for 7 days
  % MPE on challenge with […] oxycodone: ~50 % MPE
[3]; daily oxycodone 40 mg
  Discontinuations due to Diarrhea, n/N: 0/17
  Incidence of Discontinuations due to Diarrhea: (0.0%)
[3]; daily oxycodone 60 mg
  Discontinuations due to Diarrhea, n/N: 0/17
  Incidence of Discontinuations due to Diarrhea: (0.0%)
[3]; daily oxycodone 80 mg
  Discontinuations due to Diarrhea, n/N: 0/16
  Incidence of Discontinuations due to Diarrhea: (0.0%)
[4]; [5]
  First test point at which antinociception was present: 2.5 min
  Obvious signs (sedation, motor control, respiration, toxicity): no obvious signs were noted
  Time antinociception stayed significantly above baseline latencies: 40 min
[4]; 0.3 mg/kg oxycodone free-base i.v., 51° C. tail withdrawal
  Peak time of antinociception: 10 min
[4]; oxycodone free-base i.v., tested at 10-min
  ED80 value (antinociception): 0.41 mg/kg
